Values of other authors, collected in patent US8283180B2, “Periodic acid-schiff staining with detection in the infrared range” (Amicus Therapeutics, Inc., priority 2007, dated 2012).

Tests used:
[1] = tested on: Japanese medaka (Oryzias latipes); settings: low DCA exposure concentrations; as early as week two of exposure

Compound | changes in the liver [1] | carcinogenicity (rats) | carcinogenicity (mice) | left-ventricular mass index (infantile Pompe disease) | motor function by the Alberta Infant Motor Scale (AIMS) (infantile Pompe disease; unblinded assessment)
O=C(O)C(Cl)Cl [DCA, dichloroacetic acid] | marked hepatocellular cytoplasmic vacuolation, cytomegaly, karyomegaly, nuclear atypia and multifocal areas of hepatocellular necrosis and loss | carcinogenic | carcinogenic |  | 
Myozyme: enzyme replacement therapy with recombinant α-glucosidase, approved for infantile Pompe disease |  |  |  | improved with treatment | did not improve with treatment
